Measurements: patent US20020031818A1, “Modification of Mdm2 activity” (priority 2000, published 2002)

What was measured:
Mdm2 [1] = assay: 35S pulse-chase half-life of Mdm2 forms in p53/Mdm2 double null cells; format: cell-based, human; details: lactacystin 25 μM
Description: C. p53/Mdm2 double null cells were transfected with the wt or K1 forms of Mdm2 and 24 h later were subjected to pulse chase labeling with ^35S-methionine in the absence or presence of lactacystin (25 μM) as indicated in Figure. Proteins prepared at the indicated time-points were immunoprecipitated using monoclonal antibodies to Mdm2 followed by autoradiography.
p53/Mdm2 double null cells were transfected with wt or K1 forms of Mdm2 expression vectors (4 μg). ^35S-methionine (1 mCi) was added to the cell cultures 24 h after transfection for 5 hr (pulse) followed by chase (2 mM cold methionine) for the indicated time-points. Protein extracts (1 mg) were used for immunopurification of Mdm2 using mixture of monoclonal antibodies (2A-10/3 F1). Immunoprecipitated Mdm2 was washed, separated on 10% SDS-PAGE and analyzed by autoradiography.

p53-mediated apoptosis = assay: Apoptosis assay (DNA fragmentation, flow cytometry) in Mdm2/p53 double null cells; format: cell-based; details: co-expression with p53 in Mdm2/p53 double null cells
Description: FIGS. 5A-5D. Mdm2 sumoylation or mutation on Lys446 increases p53 ubiquitination and degradation and decreases p53 ability to mediate apoptosis. […] WCE was immunoprecipitated using monoclonal p53 antibodies. […] B. Ubiquitinated Mdm2 is less efficient in targeting the ubiquitination of p53. Bacterially expressed Mdm2 ([…]) was subjected to in vitro ubiquitination (self ubiquitination) in the presence of E1 [45 ng], E2 UbcH5b [1.5 μg] and ubiquitin [3 μg; SIGMA] and […] in ubiquitination buffer for the 0, 2, or 3 h (to ensure efficient self-ubiquitination) as indicated in Figure. To monitor the degree of Mdm2's ability to target the ubiquitination of p53, equal amounts of the self-ubiquitinated Mdm2 were extensively washed with TBS/0.5% Triton X-100 before incubated with bacculovirus-expressed and purified form of HA-tagged p53 for 2 h in the presence of E1, E2 and ubiquitin. The degree of p53 ubiquitination was monitored via immunoblot analysis using antibodies to HA. C. […]
Mdm2/p53 double null cells were transfected with Mdm2 constructs (as indicated) and marker plasmid encoding Green Fluorescent Protein, pEGFP (1 μg). […] The percentage of cells to the left of the diploid G0/1 peak, characteristic of hypodiploid cells, was calculated as the percentage of apoptotic cells.

Mdm2 [2] = assay: In vivo ubiquitination of Mdm2 in EJ cells (HA-Ub, Mdm2 immunoprecipitation); format: cell-based, mouse
Source text: FIG. 14A-14E. A. In vitro ubiquitination of Mdm2 is inhibited by p19^ARF. GST-Mdm2 was subjected to an in vitro ubiquitination reaction using purified forms of E1, E2 and Ub-HA in the presence of ATP. Addition of bacculovirus-purified p19^ARF at the indicated concentrations blocked Mdm2 ubiquitination. Glutathione bead-coupled GST-Mdm2 in its ubiquitinated or non-ubiquitinated forms was washed and analyzed on immunoblots using antibodies to HA (upper panel). Middle panel depicts the level of Mdm2 expression and the lower panel, the level of p19^ARF added to the reaction. B. p19^ARF expression increases Mdm2 self-ubiquitination in EJ cells. EJ cells were transfected with the indicated plasmids. Cells were harvested 36 h later and proteins ([…]) were immunoprecipitated using Mdm2 antibodies (2A10). Immunoprecipitated material was washed and proteins loaded onto 10% SDS-PAGE, followed by immunoblot analysis with HA-antibodies to detect covalent HA-ubiquitin conjugation to Mdm2 (upper panel). Middle panel depicts level of immunoprecipitated Mdm2. Lower panel represents western analysis of p19^ARF expression levels. C. In vitro ubiquitination of Mdm2 in the presence of p19^ARF and protein extracts. […] The level of p53 immunoprecipitated was monitored in immunoblots using polyclonal antibodies to p53 (middle). […]

Molecule: CC(=O)N[C@@H](CSC(=O)[C@]1([C@@H](O)C(C)C)NC(=O)[C@H](C)[C@@H]1O)C(=O)O [lactacystin]
- effect on half life of K1 form of Mdm2 (Mdm2 [1]; K1 expressing cells): remained unchanged
- effect on half-life of p75 and p90 forms of Mdm2 (Mdm2 [1]; wt Mdm2 transfected cells): prolonged the half-life of both p75 and p90

Molecule: K1: Mdm2 mutant with lysine 446 substituted for arginine
- decrease in p53-induced apoptosis (cell death) compared with wt Mdm2 (p53-mediated apoptosis): greater decrease in degree of cell death

Molecule: C[S+]([O-])c1ccc(-c2nc(-c3ccncc3)c(-c3ccc(F)cc3)[nH]2)cc1 (centres unmarked) [SB203580]
- p19ARF-mediated Mdm2 ubiquitination in inhibitor-treated cells (Mdm2 [2]; EJ cells with Flag-Mdm2, p19ARF, HA-Ub, PD 98059 50 μM, SB203580 10 and 100 μM, LY294002 50 μM, Herbimycin 1 μM): capable of attenuating p19^ARF-mediated Mdm2 ubiquitination
- increase in Mdm2 ubiquitination after UV treatment in inhibitor-pretreated cells (Mdm2 [2]; SB203580 10 μM or LY294002 50 μM, 2 h prior to harvest): attenuated
